Numbering of substitutions follows the chain as printed. pIC50: −log10 of the molar value.

Common to all, as to type: cell-based
The subject of one assay is T-47D cells. Kind of assay: Inhibition of cell proliferation in T-47D cells (CCK-8). The settings on record: 6 days treatment, CCK-8 cell viability. How it is done:
Test Example 2 Inhibitory effect of PROTAC compounds provided by the present invention on cell proliferation in T-47D cells
The complete culture medium required for T-47D cells is 1640 (ATCC, Product number: A10491-01) basal culture medium containing 10% fetal bovine serum. T-47D cells were seeded in 96-well plates at a density of 3,000 cells/well, and different concentrations of PROTAC compounds 1-55 provided in the examples of the present invention and positive control sample ARV-471 (source: Inokai) were prepared to treat the cells and incubated at 37 °C, 5% CO2 cell culture incubator for 6 days. According to the manufacturer's instructions, cell viability was detected using a CCK-8 kit (Beyotime, Product number: C0040). The IC50 of each compound after treating for 6 days was calculated using GraphPadPrism software based on the inhibition rate. Table 2 Inhibition IC50 value of T-47D cell proliferation by PROTAC compounds provided by the present invention and positive control sample

A further assay relates to MCF-7 cells. Kind of assay: Inhibition of cell proliferation in MCF-7 cells (CCK-8). The settings on record: Homo sapiens, MCF7, 144 h, MCF-7 cell proliferation, 6 days treatment. Here is the method:
Test Example 3 Inhibitory effect of PROTAC compounds provided by the present invention on cell proliferation in MCF-7 cells
The complete culture medium required for MCF-7 cells (source ATCC) is DMEM (gibco, Product number: 11995-065) basal culture medium containing 10% fetal bovine serum. MCF-7 cells were seeded in 96-well plates at a density of 800 cells/well, and different concentrations of PROTAC compounds 1-55 provided in the examples of the present invention and positive control sample ARV-471 (source: Inokai) were prepared to treat the cells and incubated at 37 °C, 5% CO2 cell culture incubator for 6 days. According to the manufacturer's instructions, cell viability was detected using a CCK-8 kit (Beyotime, Product number: C0040). The IC50 of each PROTAC compound after treating for 6 days was calculated using GraphPadPrism software based on the inhibition rate. Table 3 Inhibition IC50 value of MCF-7 cell proliferation by PROTAC compounds of the present invention and positive control sample

Assay [1] concerns the target T1, AR protein (Homo sapiens, UniProt P10275, T878A).
T1 construct: host or cells: LNCaP FGC
T1 sequence (P10275 1-920 T878A): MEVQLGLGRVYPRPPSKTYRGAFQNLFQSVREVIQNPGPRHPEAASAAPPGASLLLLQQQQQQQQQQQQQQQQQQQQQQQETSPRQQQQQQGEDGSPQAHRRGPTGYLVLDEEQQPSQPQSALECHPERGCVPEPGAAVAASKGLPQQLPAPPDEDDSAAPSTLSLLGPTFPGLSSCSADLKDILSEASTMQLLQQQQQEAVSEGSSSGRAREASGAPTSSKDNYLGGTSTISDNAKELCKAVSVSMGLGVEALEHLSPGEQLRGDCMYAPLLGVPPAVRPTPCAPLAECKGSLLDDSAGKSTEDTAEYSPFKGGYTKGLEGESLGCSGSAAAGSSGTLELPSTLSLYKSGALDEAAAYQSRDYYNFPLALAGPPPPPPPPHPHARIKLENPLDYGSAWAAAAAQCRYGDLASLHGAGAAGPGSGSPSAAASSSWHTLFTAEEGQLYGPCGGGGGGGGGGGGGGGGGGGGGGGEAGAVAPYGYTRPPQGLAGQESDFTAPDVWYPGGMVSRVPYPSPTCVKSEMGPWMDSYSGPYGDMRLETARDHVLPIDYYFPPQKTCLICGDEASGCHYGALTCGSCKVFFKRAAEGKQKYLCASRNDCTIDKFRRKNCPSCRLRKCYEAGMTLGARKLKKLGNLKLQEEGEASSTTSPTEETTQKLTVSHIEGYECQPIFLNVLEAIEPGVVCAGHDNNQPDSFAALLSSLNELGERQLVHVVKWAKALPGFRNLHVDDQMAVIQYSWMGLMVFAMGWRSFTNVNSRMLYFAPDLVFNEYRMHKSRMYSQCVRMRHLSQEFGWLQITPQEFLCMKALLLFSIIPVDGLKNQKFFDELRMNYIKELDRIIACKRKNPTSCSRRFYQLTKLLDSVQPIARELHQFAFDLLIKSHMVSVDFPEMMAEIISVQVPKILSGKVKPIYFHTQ
Briefly: AR protein degradation in LNCaP cells (Western blot). Conditions: 8 hours. Here is the method: At the same time, the corresponding solvent control was set and cultured for 8 hours. After 8 hours of culture, the culture medium was removed, the cells were washed with PBS, and RIPA lysis buffer containing 1% Protease Inhibitor Cocktail was added. After lysis and centrifugation, the total protein extract was obtained, and the protein concentration in the extract was detected by BCA method. Protein electrophoresis was performed using SDS-PAGE, and then the protein was transferred to a PVDF (Millipore Sigma catalog number PSRP010R5) membrane at a constant voltage of 100V for 60 minutes. The PVDF membrane was placed in a 5% milk powder 1 ×TBST solution and blocked at room temperature for 1 hour. […] The primary antibody solution was discarded and the PVDF membrane was washed with 1×TBST for 5 minutes each time, for three times. […] The secondary antibody solution was discarded and the PVDF membrane was washed with 1 ×TBST for 5 minutes each time, for three times. A dual-color infrared laser imaging system (Licor catalog number Odyssey CLX) was used for Western membrane imaging. The Image Studio software was used to analyze the grayscale of the bands. GAPDH protein bands were also detected for each sample as the reference. The AR protein degradation rate of the compound and the positive control sample was calculated based on the grayscale of the protein bands.

For assay [2], the target named is T2, AR protein (Homo sapiens, UniProt P10275).
T2 construct: host or cells: VCaP
T2 sequence (P10275 1-920): T1 sequence (P10275 1-920 T878A) with A878T
Kind of assay: AR protein degradation in VCaP cells (Western blot). The settings on record: 8h. Here is the method:
The degradation activity of the compounds disclosed in the present invention on AR protein in VCaP cells (cell source: ATCC)
The AR-positive human prostate cancer cells VCaP cultured in DMEM (GiBco catalog number 11995-065) containing 10% FBS (Hyclone catalog number SH30406.05) was inoculated in a six-well microplate (Thermo catalog number 140675) at a concentration of 3×10^5 cells/ well. After being cultured overnight in a carbon dioxide incubator (ESCO), the prepared compound of the present invention and the positive control sample ARV-766 (Annaiji) solution of different concentrations were added at a volume of 1 µL/well to make the final concentrations of the compound and the positive control sample reach 5nM and 0.5nM, respectively. At the same time, the corresponding solvent control was set and cultured for 8h. After 8h of culture, the culture medium was removed, and the cells were washed with PBS. RIPA lysis buffer containing 1% Protease Inhibitor Cocktail was added. After lysis and centrifugation, a total protein extract was obtained, and the protein concentration in the extract was detected by BCA method. Protein electrophoresis was performed using SDS-PAGE, and then the protein was transferred to a PVDF (Millipore Sigma catalog number PSRP010R5) membrane at a constant voltage of 100V for 60min. The PVDF membrane was placed in a 5% milk powder 1×TBST solution and blocked at room temperature for 1h. The primary antibody solution (Anti-Androgen receptor, Cell Signaling Technology catalog number: 5153S; 1:2000 dilution) was prepared and was incubated at 4°C overnight. The primary antibody solution was discarded and the PVDF membrane was washed with 1×TBST for 5 minutes each time, for three times. The secondary antibody solution (Thermo catalog number SA5-35571; 1:7500 dilution) was prepared and was incubated at room temperature for 1 hour. The secondary antibody solution was discarded and the PVDF membrane was washed with 1×TBST for 5 minutes each time, for three times. A dual-color infrared laser imaging system (Licor catalog number Odyssey CLX) was used for Western membrane imaging. Image Studio software was used to analyze the grayscale of the bands. GAPDH protein bands were also detected for each sample as the reference. The AR protein degradation rate of the compound and the positive control sample was calculated based on the grayscale of the protein bands.
Table 7 Degradation rate of AR protein in VCaP cells by the compounds disclosed in the present invention

Consider `Cn1c(=O)n(C2CCC(=O)NC2=O)c2ccc3c(c21)OCC31CCN(C2CCN(C3CCN(c4ccc([C@@H]5c6ccc(O)cc6CC[C@@H]5c5ccccc5)cc4)CC3)CC2)CC1` (some centres unmarked), for which the negative logarithm of the IC50 (pIC50) with T-47D cells (Homo sapiens, T47D, 144 h) was 8.77; in the assay on MCF-7 cells, 7.93.
In the case of `COc1cc(O[C@H]2C(C)(C)[C@H](NC(=O)c3ccc(N4CCC(CN5CCC6(CC5)COc5c6ccc6c5n(C)c(=O)n6C5CCC(=O)NC5=O)CC4)nn3)C2(C)C)ccc1C#N` (relative stereo) [A-P-27], the “Degradation of AR protein in LNCaP cells, 10 nM (%)” value on AR protein [1] (10 nM) is 43%. For the same molecule, at AR protein [1] (100 nM), the “Degradation of AR protein in LNCaP cells, 100 nM (%)” value was determined as 43%. The “Degradation rate of AR protein in VCaP cells” value on AR protein [2] (0.5 nM) was determined as 78%; on AR protein [2] (5 nM), 80%.
On AR protein [1] (10 nM), `COc1cc(O[C@H]2CC[C@H](NC(=O)c3ccc(N4CCC5(CC4)CC(N4CCC6(CC4)COc4cc7c(cc46)n(C)c(=O)n7C4CCC(=O)NC4=O)C5)nn3)CC2)ccc1C#N` (some centres unmarked) [A-P-11] returned a percent AR protein degradation at a fixed concentration at 0.01 µM of 76%. For the same molecule, on AR protein [1] (100 nM), the percent AR protein degradation at a fixed concentration at 0.1 µM came out at 32%.
Take `Cn1c(=O)n(C2CCC(=O)NC2=O)c2ccc3c(c21)OCC31CCN(C(=O)CN2CCC3(CCN(c4ccc([C@@H]5c6ccc(O)cc6CC[C@@H]5c5ccccc5)cc4)CC3)C2)CC1` (stereo partly drawn) [ER-P-68, 3-(1'-(2-(8-(4-((1R,2S)-6-hydroxy-2-phenyl-1,2,3,4-tetrahydronaphthalen-1-yl)phenyl)-2,8-diazaspiro[4.5]decan-2-yl)acetyl)-1-methyl-2-oxo-1,2-dihydro-3H,7H-spiro[benzofuro[6,7-d]imidazole-6,4'-piperidin]-3-yl)piperidine-2,6-dione]: the pIC50 was 8.93 with T-47D cells (Homo sapiens, T47D, 144 h) and 8.08 in the assay with MCF-7 cells.
In the same order, the values of `Cn1c(=O)n(C2CCC(=O)NC2=O)c2cc3c(cc21)C1(CCN(C(=O)CN2CCC4(CCN(c5ccc([C@@H]6c7ccc(O)cc7CC[C@@H]6c6ccccc6)cc5)CC4)C2)CC1)CO3` (stereo partly drawn) [ER-P-69, 3-(1'-(2-(8-(4-((1R,2S)-6-hydroxy-2-phenyl-1,2,3,4-tetrahydronaphthalen-1-yl)phenyl)-2,8-diazaspiro[4.5]decan-2-yl)acetyl)-1-methyl-2-oxo-1,2-dihydro-3H,6H-spiro[benzofuro[5,6-d]imidazole-7,4'-piperidin]-3-yl)piperidine-2,6-dione] are 9.55 and 8.84.
`Cn1c(=O)n(C2CCC(=O)NC2=O)c2ccc3c(c21)OCC31CCN(CC2CC(OC3CCN(c4ccc([C@@H]5c6ccc(O)cc6CC[C@@H]5c5ccccc5)cc4)CC3)C2)CC1` (stereo partly drawn) [ER-P-80, 3-(1'-(((1S,3s)-3-((1-(4-((1R,2S)-6-hydroxy-2-phenyl-1,2,3,4-tetrahydronaphthalen-1-yl)phenyl)piperidin-4-yl)oxy)cyclobutyl)methyl)-1-methyl-2-oxo-1,2-dihydro-3H,7H-spiro[benzofuro[6,7-d]imidazole-6,4'-piperidin]-3-yl)piperidine-2,6-dione] had a pIC50 in the assay with T-47D cells of 9.05.
As for `O=C1CCC(Nc2ccc3c(c2)OCC32CCN(CC3CC(OC4CCN(c5ccc([C@@H]6c7ccc(O)cc7CC[C@@H]6c6ccccc6)cc5)CC4)C3)CC2)C(=O)N1` (stereo partly drawn) [ER-P-92, 3-((1'-(((1S,3s)-3-((1-(4-((1R,2S)-6-hydroxy-2-phenyl-1,2,3,4-tetrahydronaphthalen-1-yl)phenyl)piperidin-4-yl)oxy)cyclobutyl)methyl)-2H-spiro[benzofuran-3,4'-piperidin]-6-yl)amino)piperidine-2,6-dione], in the assay with T-47D cells, the pIC50 was 8.34.

The record behind these values is EP4722219A1 (Gan & Lee Pharmaceuticals Co., Ltd., priority 2023, dated 2024).
